The values below come from ChEMBL document CHEMBL5465560, “Selectivity Literature for EUbOPEN Chemogenomic Library” (2024).

Each structure is given as a SMILES string. Substitutions are numbered along the chain they refer to.

Holding throughout (conditions): at 1 µM
The subject of assay [1] is T1, Receptor-type tyrosine-protein kinase FLT3 (Homo sapiens), P36888 [D835H].
T1 sequence (whole entry): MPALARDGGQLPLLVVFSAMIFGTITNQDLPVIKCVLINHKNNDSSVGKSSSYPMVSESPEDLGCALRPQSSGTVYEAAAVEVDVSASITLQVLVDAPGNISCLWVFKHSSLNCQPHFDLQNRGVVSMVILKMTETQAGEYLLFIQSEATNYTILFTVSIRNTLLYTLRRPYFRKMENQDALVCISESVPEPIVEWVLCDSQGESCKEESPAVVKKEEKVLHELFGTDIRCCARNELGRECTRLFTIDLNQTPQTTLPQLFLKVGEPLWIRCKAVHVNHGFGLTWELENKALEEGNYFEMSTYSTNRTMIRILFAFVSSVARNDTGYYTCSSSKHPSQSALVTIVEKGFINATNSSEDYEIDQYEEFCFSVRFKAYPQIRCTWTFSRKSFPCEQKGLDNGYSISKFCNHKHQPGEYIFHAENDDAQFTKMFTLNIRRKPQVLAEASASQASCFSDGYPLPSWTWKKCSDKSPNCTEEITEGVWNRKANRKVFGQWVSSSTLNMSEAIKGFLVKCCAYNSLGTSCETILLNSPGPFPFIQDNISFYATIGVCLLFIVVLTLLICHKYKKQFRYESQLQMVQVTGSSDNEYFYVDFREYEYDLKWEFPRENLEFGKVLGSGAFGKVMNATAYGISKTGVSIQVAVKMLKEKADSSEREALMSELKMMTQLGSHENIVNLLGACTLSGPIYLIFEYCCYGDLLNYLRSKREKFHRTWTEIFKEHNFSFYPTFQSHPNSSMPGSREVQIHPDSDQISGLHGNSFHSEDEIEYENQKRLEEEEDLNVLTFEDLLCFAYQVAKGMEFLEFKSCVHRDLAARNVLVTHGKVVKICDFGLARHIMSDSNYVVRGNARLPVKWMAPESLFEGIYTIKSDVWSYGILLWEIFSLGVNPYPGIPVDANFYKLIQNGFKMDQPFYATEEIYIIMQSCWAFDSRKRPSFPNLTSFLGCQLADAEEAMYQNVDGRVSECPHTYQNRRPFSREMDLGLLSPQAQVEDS
Description: (§1) Selectivity interaction (KinomeScan (DiscoverX)) EUB0000311b FLT3.

Assay [2] deals with T2, Receptor-type tyrosine-protein kinase FLT3 (Homo sapiens), P36888 [D835Y].
T2 sequence (whole entry): T1 sequence (whole entry) with H835Y
The assay is described as §1.

Assay [3] has as its system T3, Receptor-type tyrosine-protein kinase FLT3 (Homo sapiens), P36888 [K663Q].
T3 sequence (whole entry): T1 sequence (whole entry) with K663Q, H835D
The assay is described as §1.

Turning to `CCc1ccccc1C(=O)Nc1n[nH]c2c(C)c(F)c(C3C(C#N)=C(C)N(C)C(C)=C3C#N)cc12` [BAY-3827], the results for the % of control in assay [1], in assay [2] and in assay [3] were 16%, 2.5% and 13%, respectively.
